Reference: patent US10905118B2, “Triscationic amphiphile compounds, compositions, and methods for making same” (James Madison Innovations, Inc., priority 2014, dated 2021)

Columns and labels:
[1] = tested on: Bacillus cereus; assay: Minimum inhibitory concentration, B. cereus; format: cell-based; conditions: Mueller-Hinton Broth, 37° C., 72 h
Experimental: (§1) The MIC values of all compounds from both double-tailed series were determined for four Gram-positive (Staphylococcus aureus, Enterococcus faecalis, Streptococcus agalactiae, and Bacillus cereus) and two Gram-negative (Escherichia coli and Pseudomonas aeruginosa) strains, which are shown in Table 3.
(§2) The Gram-positive bacterial strains used tested were Staphylococcus aureus subsp. aureus ATCC® 29213™, Enterococcus faecalis ATCC® 29212™, Bacillus cereus, and Streptococcus agalactiae J48.^58 The Gram-negative bacterial strains used were Escherichia coli ATCC® 25922™ and Pseudomonas aeruginosa ATCC® 27853™. All strains were grown in 1× Mueller-Hinton Broth at 37° C. for 12-24 h. For the MIC and combination studies, bacterial suspensions were prepared by diluting overnight cultures to 5×10^6 CFU/mL in 2× Mueller-Hinton Broth, so that when amphiphile solutions are added the final broth strength is 1×.
(§3) The methods used to determine the MIC and MBC were performed as previously described and followed the standards set forth by the Clinical and Laboratory Standards Institute (See Ladow, J. E.; Warnock, D. C.; Hamill, K. M.; Simmons, K. L.; Davis, R. W.; Schwantes, C. R.; Flaherty, D. C.; Willcox, J. A. L.; Wilson-Henjum, K.; Caran, K. L.; Minbiole, K. P. C.; Seifert, K. Bicephalic amphiphile architecture affects antibacterial activity. Eur. J. Med. Chem. 2011, 46, 4219-4226 and P. A. Wayne Methods for dilution antimicrobial tests for bacteria that grow aerobically. 2009.). Briefly, compounds were serially diluted and 100 μL of each dilution were added to the wells of a 96-well flat-bottomed microtiter plate in triplicate. After adding 100 μL of the bacterial cell suspension, the plates were incubated at 37° C. for 72 h. […] The MIC was considered to be bactericidal if the MBC was the same concentration or one concentration higher in the dilution series as the MIC, per Motyl, M.; Dorso, K.; Barrett, J.; Giacobbe, R. Basic microbiological techniques used in antibacterial drug discovery. Curr. Protoc. Pharmacol. 2006, Chapter 13.

[2] = tested on: Streptococcus agalactiae; assay: Minimum inhibitory concentration, S. agalactiae; format: cell-based, Streptococcus agalactiae J48; conditions: Mueller-Hinton Broth, 37° C., 72 h
Experimental: as §1, §2, §3

[3] = Isothermal titration calorimetry: critical aggregation concentration and thermodynamics of aggregation; format: physicochemical; conditions: for −TΔSmic: Gibbs-Helmholtz equation; for −TΔSmic / ΔGmic: double-tailed series; for ΔGmic: approximated with RT ln(CAC/55.5); for CMC / ΔHmic: pure water, double-tailed M-P and M-1 series; for −TΔSagg term (sign, in words): Table 1
Experimental: Isothermal titration calorimetry (ITC) was used to determine the critical aggregation concentration (CAC) and the thermodynamic parameters at 37° C. associated with aggregate formation for each double-tailed amphiphile for the M-P and M-1 series, as shown in Table 1.
A Nano ITC was used to measure the heat change associated with the deaggregation of amphiphiles via power compensation. A concentrated aqueous solution of amphiphile (>>CAC) was titrated into a thermally controlled sample cell, initially containing pure water, in a series of discrete injections. Isothermal titration calorimetry was used to determine the critical aggregation concentration (CAC) and ΔHagg. Shown in FIG. 5 is the heat rate associated with each injection versus time for 9 (M-1,14,14). Shown in FIG. 6 is the integration of the heat per injection normalized by the number of moles of each injection versus the increasing concentration of amphiphile in the well. In FIG. 6, inset, CAC is determined by calculating the first derivative the heat curve.
During initial injections (Range I), measured heat changes are due to both the dilution of aggregates and deaggregation. This can be observed in the first 10 injections, where aggregates absorbed heat and disassociated into dissolved monomers. The heat change produced by each injection was approximately constant in this range. In Range II, injected aggregates don't fully dissociate, reducing the total absorbed heat for each subsequent injection. At concentrations well above the CAC (Range III), absorbed heat is attributed only to the dilution of aggregates and is approximately constant. […] CAC and thermodynamic data were not determined for the amphiphiles with the shortest tails [1 (M-P,8,8) and 6 (M-1,8,8)] because the heat evolved during injection was […] the threshold of the instrument.
The difference between the average heat of injections in Range I, representing the total heat due to the dilution of aggregates and deaggregation, and the average heat of injections in Range III, representing the heat due solely to the dilution of aggregates, gives the heat of deaggregation, ΔHdeagg. The ΔHdeagg for compound 9 (M-1,14,14) is 37 kJ/mol, corresponding to a heat of aggregate formation, ΔHagg, of −37 kJ/mol (ΔHagg=−ΔHdeagg).
The ΔGagg can be approximated for the aggregation of nonionic amphiphiles by the equation: ΔGagg=RT ln(CAC/55.5) (3)
where m is the concentration of counterions that associate with a aggregate and n is the number of monomers that associate to form an aggregate. […] BBA-Biomembranes. 2000, 1508, 69-85.)
The entropy of aggregation (ΔSagg) is dictated by a combination of entropic factors that favor or disfavor aggregate formation and can be approximated using the Gibbs-Helmholtz equation: ΔGagg=ΔHagg−TΔSagg (5)
CAC and ΔHagg were determined using a Nano-ITC (TA-Instruments). Prior to each experiment the sample cell was washed with dH2O (300 mL), ethanol (100 mL), dH2O (300 mL) and nanopure water (200 mL). Next, 950 μL of nanopure water was added to the sample cell. A concentrated aqueous solution (>>CAC) of amphiphile was prepared and equilibrated at 37° C. A 250 μL syringe was filled with the aqueous solution, and loaded into the Nano ITC. Multiple single injections in aliquots of 5 μL were injected into the sample cell with time intervals varying from 300 s to 1400 s. Samples were continuously stirred (300 rpm) throughout the titration. The Nano-Analyze program (TA-Instruments) was used to analyze the data. CAC and ΔHagg values reported are the average of two or more repeat experiments for each amphiphile.

[4] = tested on: Staphylococcus aureus; assay: Minimum inhibitory concentration, S. aureus; format: cell-based, Staphylococcus aureus subsp. aureus ATCC 29213; conditions: Mueller-Hinton Broth, 37° C., 72 h
Experimental: as §1, §2, §3

[5] = tested on: Pseudomonas aeruginosa; assay: Minimum inhibitory concentration, P. aeruginosa; format: cell-based, Pseudomonas aeruginosa ATCC 27853; conditions: Mueller-Hinton Broth, 37° C., 72 h
Experimental: as §1, §2, §3

[6] = tested on: Escherichia coli; assay: Minimum inhibitory concentration, E. coli; format: cell-based, Escherichia coli ATCC 25922; conditions: Mueller-Hinton Broth, 37° C., 72 h
Experimental: as §1, §2, §3

[7] = tested on: Enterococcus faecalis; assay: Minimum inhibitory concentration, E. faecalis; format: cell-based, Enterococcus faecalis ATCC 29212; conditions: Mueller-Hinton Broth, 37° C., 72 h
Experimental: as §1, §2, §3

SMILES | MIC B. cereus (G+) [1] | MIC S. agalactiae (G+) [2] | −TΔSmic ([3]; 37° C.) | ΔGmic ([3]; 37° C.) | ΔHagg ([3]; ITC, 37° C.) | CMC ([3]; ITC, 37° C.) | ΔHmic ([3]; ITC, 37° C.) | ΔHdeagg (heat of deaggregation) ([3]; ITC, 37° C., Range I minus Range III) | −TΔSagg term (sign, in words) [3] | MIC S. aureus (G+) [4] | MIC P. aeruginosa (G−) [5] | MIC E. coli (G−) [6] | MIC E. faecalis (G+) [7]
CCCCCCCCCCCCCC[N+](C)(C)Cc1cc(C[N+](C)(C)C)cc(C[N+](C)(C)CCCCCCCCCCCCCC)c1.[Br-].[Br-].[Br-] [Compound 9] | 4 µM | 2 to 4 µM | -1.91 kcal/mol | -6.93 kcal/mol | -8.84 kcal/mol | 0.61 mM | -8.84 kcal/mol | 8.84 kcal/mol | positive | 4 to 8 µM | 125 µM | 8 µM | 4 µM
CCCCCCCCCC[N+](C)(C)Cc1cc(C[n+]2ccccc2)cc(C[N+](C)(C)CCCCCCCCCC)c1.[Br-].[Br-].[Br-] [Compound 2] | 8 µM | 8 µM | 2.39 kcal/mol | -5.02 kcal/mol |  | 14 mM | -2.63 kcal/mol |  | negative | 2 µM | 63 µM | 16 µM | 8 µM
CCCCCCCCCCCCCCCC[N+](C)(C)Cc1cc(C[n+]2ccccc2)cc(C[N+](C)(C)CCCCCCCCCCCCCCCC)c1.[Br-].[Br-].[Br-] [Compound 5] | 32 µM | 4 µM | -2.2 kcal/mol | -7.89 kcal/mol |  | 0.18 mM | -10 kcal/mol |  | positive | 32 µM | >250 µM | 125 µM | 32 µM
CCCCCCCCCC[N+](C)(C)Cc1cc(C[N+](C)(C)C)cc(C[N+](C)(C)C)c1.[Br-].[Br-].[Br-] [Compound S2] | 125 µM | 125 µM |  |  |  |  |  |  |  | >250 µM | >250 µM | >250 µM | 250 µM
CCCCCCCCCCCC[N+](C)(C)Cc1cc(C[N+](C)(C)C)cc(C[N+](C)(C)CCCCCCCCCCCC)c1.[Br-].[Br-].[Br-] [Compound 8] | 2 µM | 2 µM | 0.0196 kcal/mol | -6.21 kcal/mol |  | 2.5 mM | -6.21 kcal/mol |  | negative | 2 µM | 16 µM | 4 to 8 µM | 2 µM
CCCCCCCC[N+](C)(C)Cc1cc(C[N+](C)(C)C)cc(C[N+](C)(C)C)c1.[Br-].[Br-].[Br-] [Compound S1] | >250 µM | >250 µM |  |  |  |  |  |  |  | >250 µM | >250 µM | >250 µM | >250 µM
CCCCCCCCCC[N+](C)(C)Cc1cc(C[N+](C)(C)C)cc(C[N+](C)(C)CCCCCCCCCC)c1.[Br-].[Br-].[Br-] [Compound 7] | 8 µM | 4 µM | 1.58 kcal/mol | -5.26 kcal/mol |  | 12 mM | -3.59 kcal/mol |  | negative | 16 µM | >250 µM | 125 µM | 8 µM
CCCCCCCC[N+](C)(C)Cc1cc(C[n+]2ccccc2)cc(C[N+](C)(C)CCCCCCCC)c1.[Br-].[Br-].[Br-] [Compound 1] | >250 µM | >250 µM |  |  |  |  |  |  |  | >250 µM | >250 µM | >250 µM | >250 µM
CCCCCCCC[N+](C)(C)Cc1cc(C[N+](C)(C)C)cc(C[N+](C)(C)CCCCCCCC)c1.[Br-].[Br-].[Br-] [Compound 6] | >250 µM | >250 µM |  |  |  |  |  |  |  | >250 µM | >250 µM | >250 µM | >250 µM
CCCCCCCCCCCC[N+](C)(C)Cc1cc(C[N+](C)(C)C)cc(C[N+](C)(C)C)c1.[Br-].[Br-].[Br-] [Compound S3] | 63 µM | 125 µM |  |  |  |  |  |  |  | 63 µM | >250 µM | >250 µM | 250 µM
